According to ChEMBL document CHEMBL1138708, “Synthesis of analogs of (1,4)-3- and 5-imino oxazepane, thiazepane, and diazepane as inhibitors of nitric oxide synthases” (Bioorg Med Chem Lett, 2004):

Columns and labels:
[1] = target: Nitric oxide synthase (inducible and endothelial) (Homo sapiens) (UniProt P35228+P29474); experiment: Ratio of inhibitory concentration against Endothelial nitric oxide synthase to Inducible nitric oxide synthase; format: protein assay
Nitric oxide synthase 3 = target: T1, Nitric oxide synthase 3 (Homo sapiens, UniProt P29474); experiment: Inhibitory concentration against Endothelial nitric oxide synthase
T1 sequence (P29474 whole entry): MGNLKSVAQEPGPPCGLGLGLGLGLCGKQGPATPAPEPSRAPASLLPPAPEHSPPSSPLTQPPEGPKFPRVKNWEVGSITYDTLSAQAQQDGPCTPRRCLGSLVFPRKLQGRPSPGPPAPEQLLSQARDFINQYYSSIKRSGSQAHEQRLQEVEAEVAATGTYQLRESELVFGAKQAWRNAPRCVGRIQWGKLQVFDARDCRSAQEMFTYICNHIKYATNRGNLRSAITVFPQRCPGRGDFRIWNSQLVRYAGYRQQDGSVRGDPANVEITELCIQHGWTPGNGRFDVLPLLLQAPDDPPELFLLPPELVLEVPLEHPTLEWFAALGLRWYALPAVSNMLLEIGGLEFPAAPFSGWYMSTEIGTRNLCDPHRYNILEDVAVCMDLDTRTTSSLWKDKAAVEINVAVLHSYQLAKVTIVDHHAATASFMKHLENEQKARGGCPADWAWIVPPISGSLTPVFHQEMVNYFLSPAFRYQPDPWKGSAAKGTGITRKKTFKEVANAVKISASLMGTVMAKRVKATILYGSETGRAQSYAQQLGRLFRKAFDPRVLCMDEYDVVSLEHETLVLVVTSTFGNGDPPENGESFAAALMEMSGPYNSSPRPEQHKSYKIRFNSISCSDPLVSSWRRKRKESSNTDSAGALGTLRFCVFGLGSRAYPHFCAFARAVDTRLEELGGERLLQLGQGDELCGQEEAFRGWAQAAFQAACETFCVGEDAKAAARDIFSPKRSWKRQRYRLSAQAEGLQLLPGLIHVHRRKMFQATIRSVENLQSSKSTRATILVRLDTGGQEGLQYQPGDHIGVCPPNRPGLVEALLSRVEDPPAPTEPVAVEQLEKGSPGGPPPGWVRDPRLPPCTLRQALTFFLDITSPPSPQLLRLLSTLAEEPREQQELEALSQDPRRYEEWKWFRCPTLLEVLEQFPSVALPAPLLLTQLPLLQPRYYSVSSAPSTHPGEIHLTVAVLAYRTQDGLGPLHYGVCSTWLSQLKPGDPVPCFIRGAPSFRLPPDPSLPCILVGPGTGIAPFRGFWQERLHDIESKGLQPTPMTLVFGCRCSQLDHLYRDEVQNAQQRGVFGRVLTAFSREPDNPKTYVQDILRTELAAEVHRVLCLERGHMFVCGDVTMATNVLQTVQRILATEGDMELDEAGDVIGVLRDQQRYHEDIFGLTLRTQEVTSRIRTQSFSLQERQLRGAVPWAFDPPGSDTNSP

Nitric oxide synthase 1 = Nitric oxide synthase 1 (Homo sapiens, UniProt P29475); experiment: Inhibitory concentration against Neuronal nitric oxide synthase
Sequence of Nitric oxide synthase 1 (P29475 whole entry): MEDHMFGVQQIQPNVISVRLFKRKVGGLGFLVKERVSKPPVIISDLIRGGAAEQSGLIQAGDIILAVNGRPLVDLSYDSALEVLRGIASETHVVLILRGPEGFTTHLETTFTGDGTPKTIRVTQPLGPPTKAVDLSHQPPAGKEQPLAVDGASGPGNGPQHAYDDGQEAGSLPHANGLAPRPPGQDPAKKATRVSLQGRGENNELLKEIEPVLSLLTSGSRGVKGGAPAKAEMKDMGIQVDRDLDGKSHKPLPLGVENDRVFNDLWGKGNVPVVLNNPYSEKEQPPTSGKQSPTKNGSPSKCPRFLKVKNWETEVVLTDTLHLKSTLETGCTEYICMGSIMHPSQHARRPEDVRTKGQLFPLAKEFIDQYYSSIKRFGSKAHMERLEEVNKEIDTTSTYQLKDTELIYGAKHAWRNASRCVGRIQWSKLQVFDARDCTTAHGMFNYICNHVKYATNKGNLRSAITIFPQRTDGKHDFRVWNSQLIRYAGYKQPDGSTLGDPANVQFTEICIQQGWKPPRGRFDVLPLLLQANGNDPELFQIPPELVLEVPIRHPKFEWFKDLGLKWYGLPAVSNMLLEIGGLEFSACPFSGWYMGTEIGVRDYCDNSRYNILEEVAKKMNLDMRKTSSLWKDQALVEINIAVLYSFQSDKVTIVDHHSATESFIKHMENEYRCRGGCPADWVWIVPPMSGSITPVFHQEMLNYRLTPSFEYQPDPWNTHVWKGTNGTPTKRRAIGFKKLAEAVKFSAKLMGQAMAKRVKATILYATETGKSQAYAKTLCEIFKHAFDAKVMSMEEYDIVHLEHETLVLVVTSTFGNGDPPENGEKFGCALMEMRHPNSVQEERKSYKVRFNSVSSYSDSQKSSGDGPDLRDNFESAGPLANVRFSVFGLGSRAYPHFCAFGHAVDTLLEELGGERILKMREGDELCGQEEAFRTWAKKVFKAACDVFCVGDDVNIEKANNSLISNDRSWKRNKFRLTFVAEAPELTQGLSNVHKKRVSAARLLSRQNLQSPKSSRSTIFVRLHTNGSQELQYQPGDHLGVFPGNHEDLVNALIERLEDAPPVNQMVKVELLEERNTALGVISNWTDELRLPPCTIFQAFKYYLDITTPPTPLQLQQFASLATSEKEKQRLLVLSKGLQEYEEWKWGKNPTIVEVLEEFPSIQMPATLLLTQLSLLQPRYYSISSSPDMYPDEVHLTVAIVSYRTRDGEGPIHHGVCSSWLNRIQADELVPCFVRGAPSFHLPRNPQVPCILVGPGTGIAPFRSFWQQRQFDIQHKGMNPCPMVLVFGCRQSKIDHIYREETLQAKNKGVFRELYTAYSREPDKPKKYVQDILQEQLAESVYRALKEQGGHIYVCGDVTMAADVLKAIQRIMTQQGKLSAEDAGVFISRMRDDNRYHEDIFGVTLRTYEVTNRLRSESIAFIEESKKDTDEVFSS

[2] = target: Nitric oxide synthase, inducible (Homo sapiens, UniProt P35228); experiment: Inhibitory concentration against Inducible nitric oxide synthase
Sequence of Nitric oxide synthase, inducible (P35228 whole entry): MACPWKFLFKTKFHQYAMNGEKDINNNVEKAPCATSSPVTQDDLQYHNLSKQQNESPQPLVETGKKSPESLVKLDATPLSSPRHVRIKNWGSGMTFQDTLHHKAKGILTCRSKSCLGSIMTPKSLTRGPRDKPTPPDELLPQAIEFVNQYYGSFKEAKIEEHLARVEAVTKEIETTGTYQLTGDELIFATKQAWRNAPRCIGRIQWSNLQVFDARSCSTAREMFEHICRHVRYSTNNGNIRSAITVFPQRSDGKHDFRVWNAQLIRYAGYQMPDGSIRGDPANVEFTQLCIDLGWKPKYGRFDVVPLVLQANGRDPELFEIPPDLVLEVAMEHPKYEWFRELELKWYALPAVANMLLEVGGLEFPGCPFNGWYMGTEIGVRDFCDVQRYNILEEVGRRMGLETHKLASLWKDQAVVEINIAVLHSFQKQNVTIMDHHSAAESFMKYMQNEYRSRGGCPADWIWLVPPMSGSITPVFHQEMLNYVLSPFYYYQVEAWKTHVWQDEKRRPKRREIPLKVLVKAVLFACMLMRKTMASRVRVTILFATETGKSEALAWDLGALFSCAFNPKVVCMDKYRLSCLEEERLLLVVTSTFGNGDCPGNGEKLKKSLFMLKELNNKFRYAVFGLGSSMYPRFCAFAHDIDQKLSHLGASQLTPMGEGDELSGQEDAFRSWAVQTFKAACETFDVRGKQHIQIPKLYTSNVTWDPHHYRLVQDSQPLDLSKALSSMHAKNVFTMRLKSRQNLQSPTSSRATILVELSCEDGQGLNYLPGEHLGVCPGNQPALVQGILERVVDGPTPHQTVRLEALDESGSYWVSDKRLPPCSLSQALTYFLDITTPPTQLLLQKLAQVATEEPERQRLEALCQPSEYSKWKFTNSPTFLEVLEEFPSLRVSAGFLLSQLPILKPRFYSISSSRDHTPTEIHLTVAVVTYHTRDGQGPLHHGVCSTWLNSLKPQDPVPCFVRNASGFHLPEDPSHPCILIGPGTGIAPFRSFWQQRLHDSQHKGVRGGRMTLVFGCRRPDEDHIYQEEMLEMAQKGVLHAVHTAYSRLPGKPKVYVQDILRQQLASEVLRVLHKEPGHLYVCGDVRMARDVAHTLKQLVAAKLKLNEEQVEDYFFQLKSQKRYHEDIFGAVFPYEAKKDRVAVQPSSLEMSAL

Row | Selectivity [1] | IC50 (Nitric oxide synthase 3) [µM] | IC50 (Nitric oxide synthase 1) [µM] | IC50 [2] [µM] | SMILES
1 | 3.7 |  |  |  | CC(=N)NCCCC[C@H](N)C(=O)O
2 |  | > 50 | > 50 | > 50 | CC1CC(N)=NC2CCCCC2S1 (stereo not drawn)
3 | 6.1 | 5 | 1.8 | 0.81 | CC1CSCCC(N)=N1 (stereo not drawn)
4 |  | > 50 | > 50 | > 50 | NC1=NCCNCC1
5 | 42 |  |  |  | CCC[C@@H]1CSCCC(N)=N1
6 | 3.7 | 1.1 | 0.59 | 0.31 | CCC1CSCCC(N)=N1 (stereo not drawn)
7 | 9.5 | 13.4 | 4.3 | 1.4 | NC1=NCCSCC1
8 | 8.8 | 10.5 | 2.8 | 1.2 | NC1=NCCCSC1
9 | 186 | 60 | 1.9 | 0.32 | CC(C)CC1CSCCC(N)=N1 (stereo not drawn)
10 | 1.1 | 4.1 | 0.83 | 3.5 | CC1CN=C(N)CCS1 (stereo not drawn)
11 |  | 0.45 |  |  | NC1=NCCCOC1
12 | 5.3 | 6 | 2.7 | 1.1 | NC1=NC(CO)CSCC1 (stereo not drawn)
13 |  | > 50 | > 50 | > 50 | CC1CSCCN=C1N (stereo not drawn)
14 | 2.1 | 25 | 8.7 | 11.8 | NC1=NCCOCC1
15 |  | 50 | 7.1 | 1.2 | CCC[C@@H]1CSCCC(=N)N1
16 | 172 | 50 | 2.8 | 0.29 | CCCC1CSCCC(N)=N1 (stereo not drawn)
17 | 1.6 | 5 | 1 | 3 | CC1CC(N)=NCCS1 (stereo not drawn)
18 | 5.2 | 1 | 0.44 | 0.19 | CCC[C@H]1CSCCC(N)=N1
19 | 164 | 77 | 1.2 | 0.5 | CCCCC1CSCCC(N)=N1 (stereo not drawn)
